Measurements taken from paper PMC10810714, “Antiretroviral Drug Exposure and Response in Obese and Morbidly Obese People With Human Immunodeficiency Virus (HIV): A Study Combining Modelling and Swiss HIV Cohort Data” (Clinical Infectious Diseases: An Official Publication of …, 2023).
Read-outs that look alike come from different tables or passages of the source.

Tests used:
[1] = Observed pharmacokinetics of antiretrovirals in nonobese and obese individuals (SHCS therapeutic drug monitoring data and literature studies, noncompartmental analysis); conditions: for AUC(0-t) / Cmax / half-life: human, plasma, po, nonobese individuals; for AUC(0-t): AUCt; for AUC(0-t) / Cmax: observed; for AUC(0-t) / Cmax / half-life / Cτ, observed, nonobese individuals: nonobese (BMI range per drug), GM; for half-life: t1/2, observed
Source text: (§1) We took several steps to analyse the impact of obesity on the ARVs exposure and response. First, we implemented our in-house PBPK model with our recently published virtual White obese population to simulate the pharmacokinetics of ARVs in nonobese and obese individuals. Next, we verified the simulations against the TDM data collected during the follow-up visits of the SHCS (multiple drug levels per individual were allowed [more information on the SHCS in the homonymous section in the Supplementary Material]). We then applied the verified model to extrapolate the pharmacokinetics across different obesity classes. Finally, the clinical relevance of obesity-related changes on drug response was evaluated by analyzing HIV viral load and the corresponding TDM values in obese and nonobese individuals in the SHCS.
(§2) All ARV drug models, except for doravirine (Supplementary Table 1), were previously developed and verified to predict the pharmacokinetics in healthy and elderly PWH [6, 12]. […] The TDM data were excluded if the participant’s age was younger than 20 or older than 50 years to avoid the age-related confounding effect on the pharmacokinetics, if a nonstandard ARV dosage was used, and if concurrent medications with inhibitory or inducing effects were used. The pharmacokinetic parameters including peak plasma concentration (Cmax), area under the curve to time t (AUCt), and trough concentration (Cτ) were derived from the TDM data using noncompartmental analysis.
(§3) A literature search was also performed to identify pharmacokinetic studies with ARVs conducted in obese and nonobese individuals. Data on the study design, characteristics of the participants, and pharmacokinetic results were collected. […] Available concentration-time profiles were digitalized using GetData Graph Digitizer V.2.26. The virtual trials were conducted by matching the participants’ demographics (eg, age, proportion of females, and BMI) and the ARV dosing regimen (Supplementary Table 2). The models were considered verified if the simulations were within 2-fold of observed data.
The Swiss HIV Cohort Study (SHCS) is an ongoing, nationwide, multicenter, clinic-based prospective cohort study in Switzerland with continuous enrollment and follow-up (twice a year) of people with HIV (PWH). Socio-demographic, clinical and laboratory data are recorded in detail. […] The collection of therapeutic drug monitoring (TDM) data in the SHCS database was initiated in 1998. All available TDM data for each evaluated antiretroviral drug were extracted from the SHCS database representing 6210 and 575 data points for the verification of the simulations in non-obese and obese individuals, respectively.

[2] = PBPK model virtual trials matched to the observed studies (model verification, nonobese vs obese); parameters: species or system human; conditions: for AUCt, Ratio Predicted/Observed, Nonobese / Cmax, Ratio Predicted/Observed, Nonobese / Cτ, Ratio Predicted/Observed, Nonobese / t1/2, Ratio Predicted/Observed, Nonobese: nonobese individuals; for Predictions within x-fold of observed clinical data: pharmacokinetic parameters in obese and nonobese individuals, 1.25-fold 'for the most part'
Source text: as §1, §2, §3

[3] = tested on: HIV viral load; experiment: Drug response in obese versus nonobese participants in the SHCS (concentration below efficacy threshold and viral load >50 copies/mL)
Procedure: The viral load was analyzed in conjunction with the TDM data to evaluate whether a decrease in ARV exposure in obese PWH is associated with a viral load of more than 50 copies/mL (the viral load measured on the date of the TDM assessment was considered for this evaluation).

[4] = Black African PWH, median BMI 25.3 vs 32.8 kg/m^2; cited from earlier work
[5] = cited from earlier work; for AUCt, observed, nonobese individuals / Cmax, observed, nonobese individuals / Cτ, observed, nonobese individuals / t1/2, observed, nonobese individuals: standard oral dose at steady state, GM (mean for etravirine, emtricitabine, tenofovir), literature studies only, ref Supplementary Table 2 [9-16, 21-24]
[6] = over 18 mo after switching from tenofovir disoproxil fumarate; cited from earlier work
[7] = standard oral dose at steady state, SHCS TDM data with or without literature data
[8] = BMI 18.5–30 kg/m^2, viral load above 50 copies/mL
[9] = BMI >30 kg/m^2, viral load above 50 copies/mL
[10] = obese (BMI >=30, range per drug), standard oral dose at steady state, GM (mean for etravirine), SHCS TDM data with or without literature data
[11] = obese BMI 36–46 kg/m^2, 245 mg QD, mean, literature study only

Compound | AUC(0-t) [1, 7] [ng·h/mL] | Cmax [1, 7] [ng/mL] | half-life [1, 7] [h] | Cτ, observed, nonobese individuals [1, 7] [ng/mL] | AUCt, Ratio Predicted/Observed, Nonobese [2] | Cmax, Ratio Predicted/Observed, Nonobese [2] | Cτ, Ratio Predicted/Observed, Nonobese [2] | t1/2, Ratio Predicted/Observed, Nonobese [2] | % PWH with concentration below efficacy threshold ([3]; BMI 18.5–30 kg/m^2) [%] | % PWH with virological failure amongst those with concentration below efficacy threshold [3, 8] [%] | % PWH with concentration below efficacy threshold ([3]; BMI >30 kg/m^2) [%] | % PWH with virological failure amongst those with concentration below efficacy threshold [3, 9] [%] | Cτ, observed, obese individuals [1, 10] [ng/mL] | AUCt, observed, nonobese individuals [5] [ng·h/mL] | Cmax, observed, nonobese individuals [5] [ng/mL] | Cτ, observed, nonobese individuals [5] [ng/mL] | further results
O=C(NCc1c(F)cc(F)cc1F)c1cn2c(c(O)c1=O)C(=O)N1[C@H]3CC[C@H](C3)O[C@@H]1C2 [Bictegravir, bictegravir] | 85800 | 5240 | 20.6 | 2373 | 0.97 | 0.87 | 1.01 | 1.27 | 1.5 | 0 | 0 | 0 |  |  |  |  | Predictions within x-fold of observed clinical data [2]: ≤ 1.5 fold
C[C@@H]1CCO[C@H]2Cn3cc(C(=O)NCc4ccc(F)cc4F)c(=O)c(O)c3C(=O)N12 [Dolutegravir, dolutegravir] | 45400 | 3320 | 12.6 | 889 |  |  |  |  | 2.1 | 0.3 | 2.6 | 0 | 940 |  |  |  | Reduction in AUCt, obese vs nonobese [4]: 9%; Reduction in Cmax, obese vs nonobese [4]: 14%; Reduction in Cτ, obese vs nonobese [4]: 1%
O=C1Nc2ccc(Cl)cc2[C@@](C#CC2CC2)(C(F)(F)F)O1 [Efavirenz, efavirenz] | 52200 | 3170 | 20.2 | 1751 |  |  |  |  | 2.3 | 1.1 | 5.2 | 1.1 | 1512 |  |  |  | 
Nc1nc(=O)n([C@@H]2CS[C@H](CO)O2)cc1F [Emtricitabine, emtricitabine] |  |  |  |  | 1.10 | 0.99 | 1.35 | 1.86 |  |  |  |  |  | 9589.4 | 1640.2 | 67.1 | t1/2, observed, nonobese individuals [5]: 9.4 h
Cc1cc(C#N)cc(C)c1Oc1nc(Nc2ccc(C#N)cc2)nc(N)c1Br [Etravirine, etravirine] |  |  |  |  |  |  |  |  | 32.1 | 11.9 | 10 | 0 | 313 | 7970 | 949 | 464 | 
Cc1nnc(C(=O)NC(C)(C)c2nc(C(=O)NCc3ccc(F)cc3)c(O)c(=O)n2C)o1 [Raltegravir, raltegravir] |  |  |  | 142 |  |  |  |  | 4 | 1.6 | 4.7 | 0 | 171 |  |  |  | 
Cc1cc(/C=C/C#N)cc(C)c1Nc1ccnc(Nc2ccc(C#N)cc2)n1 [Rilpivirine, rilpivirine] |  |  |  |  | 1.05 | 0.93 | 0.96 | 0.65 | 15 | 1.9 | 0 | 0 | 89.2 | 2333 | 159.7 | 75.2 | Cmax, observed, obese individuals [1, 10]: 147.7 ng/mL; AUCt, Ratio Obese/Nonobese, Observed ([1]; observed data): 0.85; Cmax, Ratio Obese/Nonobese, Observed ([1]; observed data): 0.92; Cτ, Ratio Obese/Nonobese, Observed ([1]; observed data): 1.19; AUCt, Ratio (Predicted Ratio Obese/Nonobese)/(Observed Ratio Obese/Nonobese) [2]: 1.16; Cmax, Ratio (Predicted Ratio Obese/Nonobese)/(Observed Ratio Obese/Nonobese) [2]: 1.09; Cτ, Ratio (Predicted Ratio Obese/Nonobese)/(Observed Ratio Obese/Nonobese) [2]: 0.87; AUCt, Ratio Predicted/Observed, Obese ([2]; obese individuals): 1.23; Cmax, Ratio Predicted/Observed, Obese ([2]; obese individuals): 1.00; Cτ, Ratio Predicted/Observed, Obese ([2]; obese individuals): 0.84; Predictions within x-fold of observed clinical data [2]: ≤ 1.25 fold; t1/2, observed, nonobese individuals [5]: 47.2 h
CC(C)c1nc(CN(C)C(=O)N[C@H](C(=O)N[C@@H](Cc2ccccc2)C[C@H](O)[C@H](Cc2ccccc2)NC(=O)OCc2cncs2)C(C)C)cs1 [Ritonavir, ritonavir] | 5740 | 480 | 5.4 | 91.4 |  |  |  |  |  |  |  |  | 71.3 |  |  |  | 
C[C@H](Cn1cnc2c(N)ncnc21)OCP(=O)(O)O [Tenofovir, tenofovir] |  |  |  |  | 1.06 | 1.00 | 1.11 | 1.15 |  |  |  |  |  | 2858.4 | 300.5 | 58.2 | AUCt, Ratio Predicted/Observed, Obese ([2]; obese individuals): 0.95; Cmax, Ratio Predicted/Observed, Obese ([2]; obese individuals): 0.83; Cτ, Ratio Predicted/Observed, Obese ([2]; obese individuals): 1.13; t1/2, Ratio Predicted/Observed, Obese ([2]; obese individuals): 1.75; t1/2, observed, nonobese individuals [5]: 14.9 h; AUCt, observed, obese individuals [5, 11]: 2346 ng·h/mL; Cmax, observed, obese individuals [5, 11]: 263 ng/mL; Cτ, observed, obese individuals [5, 11]: 47 ng/mL; t1/2, observed, obese individuals [5, 11]: 13 h
CC(C)OC(=O)[C@H](C)N[P@](=O)(CO[C@H](C)Cn1cnc2c(N)ncnc21)Oc1ccccc1 [tenofovir alafenamide] |  |  |  |  |  |  |  |  |  |  |  |  |  |  |  |  | Increase in weight [6]: 1.7 kg
darunavir/ritonavir |  |  |  |  |  |  |  |  |  | 1.6 |  | 0 |  |  |  |  | 
